# Laboratory results: patent US12324798B1, “Leonurine nanocomposite hydrogel and preparation methods and applications thereof” (WEST CHINA HOSPITAL OF SICHUAN UNIVERSITY, priority 2023, dated 2025)
# Test system: LPS-stimulated Raw264.7 cells
# Assay: Western blotting of pro-inflammatory cytokines
# Assay type: cell-based
# Conditions: WB; co-culture with LPS-stimulated Raw264.7 cells for 2 days; vs LPS
# Experimental: In some embodiments, to assess whether M1 macrophage-targeted FA-PDA nanocarriers enhance the efficiency of anti-inflammatory therapy with loaded Leon, FA-PDA@Leon was co-cultured with LPS-stimulated Raw264.7 cells for 2 days, after which western blotting (WB) analysis was performed. A first group (Group 1) in FIG. 4G to FIG. 4J represents the control group (NC), a second group (Group 2) represents the LPS treatment, a third group (Group 3) represents the LPS and Leon co-treatment, a fourth group (Group 4) represents the LPS and PDA co-treatment, the fifth group (Group 5) represents the LPS and PDA@Leon co-treatment, and a sixth group (Group 6) indicates the LPS and FA-PDA@Leon co-treatment.
smiles,measurement,value
"COc1cc(C(=O)OCCCCNC(=N)N)cc(OC)c1O [Leon, leonurine]","protein expression of pro-inflammatory cytokines (iNOS, IL-13, IL-6, TNF-α)",down-regulated
